# Measured values from patent US20020016369A1, “Use of nimesulide for the treatment of psoriasis and psoriatic arhtritis” (priority 2000, published 2002).
# Tested on: patients affected by psoriatic arthritis
# Procedure: Controlled double-blind clinical trials were carried out on patients 18 to 70 years old affected by psoriatic arthritis showing at least three swollen joints, absence of rheumatoid factor and no other rheumatic conditions.
# The patients, who received no previous pharmacological treatment with antirheumatic drugs during the three-month pre-study period, were treated for 4 weeks with Nimesulide (100 to 400 mg/day orally or application of a 3% gel twice a day).
# At the end of the treatment period, the following parameters were evaluated:
# number of tender and swollen joints
# skin symptoms evaluated according to the Psoriasis Area Severity Index (PASI)
# [1] = patients 18 to 70 years old, 4 weeks, 100 to 400 mg/day orally or 3% gel twice a day
smiles,measurement,setting,value
CS(=O)(=O)Nc1ccc([N+](=O)[O-])cc1Oc1ccccc1 [Nimesulide],action on joint flogosis,general statement of finding,beneficial action on joint flogosis
same,effect on skin lesions,general statement of finding,remarkable improvement of such lesions
same,clinical efficacy in oligopolyarticular psoriatic arthritis,[1],clinically effective in the treatment of oligopolyarticular psoriatic arthritis in a statistically significant way
same,toxic or untoward effects (tolerability),[1],"no toxic or untoward effect, particularly no gastrointestinal adverse effect"
